Test results published in paper PMC5078989, “Targeted inhibition of the COP9 signalosome for treatment of cancer” (Nature Communications, 2016).

Test system: panel of cancer cell lines
Experiment: Cell viability (CellTiter-Glo) dose-response across cancer cell line panel;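 further: after 72 h compound incubation with CellTiter-Glo ATP readout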
Assay type: cell-based, human
Conditions: Homo sapiens
Text: Next, we explored the effect of CSN5 inhibition on the viability of cancer cells. To obtain a comprehensive picture, we generated dose–response curves with a CSN5 inhibitor across more than 500 cancer cell lines in a previously described standardized setting[47] (Supplementary Data 1).
A standardized CellTiter-Glo Assay (Promega #G7570) based on the quantification of ATP was applied according to the manufacturer's protocol to measure the amount of viable cells in culture. In brief, cells were seeded into 384-well plates at optimal density for each cell line. After 4 h, compounds were added at different concentrations in growth medium and incubated for another 72 h in a humidifying chamber at 37 °C and 5% CO2. […] EC50 values were calculated from the plot of percentage of inhibition versus inhibitor concentration using the nonlinear regression analysis software Origin 7.5SR6 (OriginLab Corp.).

COCc1ccccc1NCc1ccc([C@H]2[C@@H](O)CCCc3cncn32)c(-c2ccccc2Cl)c1 [CSN5i-2, (5S,6S)-5-(2′-chloro-5-(((2-(methoxymethyl)phenyl)amino)methyl)-[1,1′-biphenyl]-2-yl)-6,7,8,9-tetrahydro-5H-imidazo[1,5-a]azepin-6-ol] showed an EC50 (HEC-50B) of 0.2 µM, an EC50 (HEC-108) of 3.13 µM and an EC50 (HEC-151) of 1.28 µM. It also gave an EC50 (HEC-251, HEC-251) of 0.513 µM, an EC50 (HEC-265) of 0.807 µM and an EC50 (HEL) of 0.404 µM. It also gave an EC50 (HEL 92.1.7, HEL 92.1.7) of 0.491 µM, an EC50 (HEY A8, Hey-A8) of 1.99 µM and an EC50 (HL-60, HL-60) of 0.871 µM. For the same compound, the EC50 (HLC-1) was 3.33 µM, the EC50 (HLE) was 1.36 µM and the EC50 (HLF) was 0.697 µM. The EC50 (HMC-1-8) was 1.11 µM, the EC50 (HPAC) was 1.99 µM and the EC50 (HPBALL, HPB-ALL) was 1.02 µM. It also gave an EC50 (HRT-18, HRT-18) of 1.03 µM, an EC50 (HSC-2, HSC-2) of 0.892 µM and an EC50 (HSC-3, HSC-3) of 0.637 µM. For the same compound, the EC50 (HSC-4, HSC-4) was 1.05 µM, the EC50 (HT-29, HT-29) was 2.39 µM and the EC50 (HT-1080, HT-1080) was 0.407 µM. The EC50 (Hep3B) was 1.09 µM, the EC50 (Hep 3B2.1-7) was 1.8 µM and the EC50 (Hs 294T) was 1.95 µM. For the same compound, the EC50 (Hs 695T) was 0.7 µM, the EC50 (Hs766T, Hs 766T) was 10.8 µM and the EC50 (Hs 852.T) was 2.2 µM. It also gave an EC50 (Hs 936.T) of 1.54 µM, an EC50 (Hs 944.T) of 0.778 µM and an EC50 (HuG1-N) of 14 µM. For the same compound, the EC50 (HuP-T3, HUP-T3) was 0.349 µM, the EC50 (Huh-7, HuH-7) was 0.309 µM and the EC50 (IGR-37, IGR-37) was 4.04 µM. It also gave an EC50 (IGR-39, IGR-39) of 1.72 µM, an EC50 (IGROV-1, IGROV1) of 7.24 µM and an EC50 (IPC-298, IPC-298) of 1.23 µM. It also gave an EC50 (IST-MES2) of 0.609 µM, an EC50 (Ishikawa) of 1.55 µM and an EC50 (J82, J82) of 4.93 µM. The EC50 (JHH7, JHH-7) was 2.44 µM, the EC50 (JHH-4, JHH-4) was 0.388 µM and the EC50 (JHOS-2) was > 30 µM. The EC50 (JHUEM-2) was 0.912 µM, the EC50 (JHUEM-3) was > 30 µM and the EC50 (JIMT-1, JIMT-1) was 22.6 µM. The EC50 (JL-1) was 0.718 µM, the EC50 (JU77) was 0.857 µM and the EC50 (JVM-2, JVM-2) was 0.553 µM. It also gave an EC50 (K029AX) of 3.06 µM, an EC50 (KARPAS-422, KARPAS-422) of 1.75 µM and an EC50 (KATO III) of 9.81 µM. The EC50 (KBM-7, KBM-7) was 0.229 µM, the EC50 (KCI-MOH1) was 0.797 µM and the EC50 (KE-97, KE-97) was 0.547 µM. It also gave an EC50 (KLE) of 1.26 µM, an EC50 (KM12, KM12) of 3.47 µM and an EC50 (KMM-1, KMM-1) of 0.685 µM. The EC50 (KMRC-1, KMRC-1) was 1.89 µM, the EC50 (KMRC-20) was 0.788 µM and the EC50 (KMS-11, KMS-11) was 0.215 µM. It also gave an EC50 (KNS-60) of 6.14 µM, an EC50 (KNS-62, KNS-62) of 8.05 µM and an EC50 (KO52) of 0.861 µM. For the same compound, the EC50 (KP-1N) was 1.11 µM, the EC50 (KP-1NL) was > 30 µM and the EC50 (KP-2) was 0.942 µM. For the same compound, the EC50 (KP-3) was 1.89 µM, the EC50 (KP-4, KP4) was 1.21 µM and the EC50 (KS-1) was 9.04 µM. The EC50 (KU-19-19, KU-19-19) was 1.97 µM, the EC50 (KURAMOCHI) was 0.392 µM and the EC50 (KYSE-30, KYSE-30) was 1.7 µM. The EC50 (KYSE-70, KYSE-70) was 6.04 µM, the EC50 (KYSE-150, KYSE-150) was 13.4 µM and the EC50 (KYSE-180, KYSE-180) was 2.15 µM. For the same compound, the EC50 (KYSE-410, KYSE-410) was 11 µM, the EC50 (Kasumi-3, Kasumi3) was 0.39 µM and the EC50 (Kasumi-6) was 4.46 µM. It also gave an EC50 (L3.3) of 1.39 µM, an EC50 (L-363, L-363) of 0.251 µM and an EC50 (L-428, L-428) of 0.59 µM. For the same compound, the EC50 (LC-1/sq-SF) was 24 µM, the EC50 (LC-1F) was 6.99 µM and the EC50 (LC-2-ad, LC2/ad) was 3.57 µM. The EC50 (LCLC-103H) was 21.5 µM, the EC50 (LIM1899) was 0.884 µM and the EC50 (LIM2099) was 0.391 µM. The EC50 (LIM2405) was 2.38 µM, the EC50 (LIM2550) was 1.04 µM and the EC50 (LMSU) was 0.247 µM. For the same compound, the EC50 (LN-18, LN-18) was 0.708 µM, the EC50 (LN-229, LN-229) was 2.6 µM and the EC50 (LO68) was 3.37 µM. The EC50 (LOU-NH91, LOU-NH91) was 1.35 µM, the EC50 (LOX IMVI) was 0.952 µM and the EC50 (LP-1, LP-1) was 1.09 µM. It also gave an EC50 (LS180, LS 180) of 0.448 µM, an EC50 (LUDLU-1, LUDLU-1) of 3.41 µM and an EC50 (Li-7, Li-7) of 0.766 µM. For the same compound, the EC50 (Lu-65, LU65) was 0.558 µM, the EC50 (Lu-99, LU99) was 0.25 µM and the EC50 (M-07e) was 7.18 µM. For the same compound, the EC50 (MCAS) was 0.692 µM, the EC50 (MCC13) was 0.846 µM and the EC50 (MCC14/2) was 0.282 µM. The EC50 (MCC26) was 1.44 µM, the EC50 (MDA-MB-134-VI) was 0.694 µM and the EC50 (MDA-MB-157, MDA-MB-157) was 2.49 µM. For the same compound, the EC50 (MDA-MB-175-VII) was 3.51 µM, the EC50 (MDA-MB-231, MDA-MB-231) was 1.58 µM and the EC50 (MDA-MB-435S) was 4.47 µM. The EC50 (MDA-MB-436, MDA-MB-436) was 0.387 µM, the EC50 (MDA-MB-453, MDA-MB-453) was 7.12 µM and the EC50 (MDA-MB-468, MDA-MB-468) was 5.94 µM. The EC50 (MDST8, MDST8) was 1.39 µM, the EC50 (ME-180, ME180) was 0.63 µM and the EC50 (MEC1, MEC-1) was 0.517 µM. It also gave an EC50 (MEL-HO) of 10.5 µM, an EC50 (MEL-JUSO) of 11.2 µM and an EC50 (MES-SA) of 0.889 µM. The EC50 (MFE-280, MFE-280) was 5.45 µM, the EC50 (MFE-296, MFE-296) was 0.518 µM and the EC50 (MFE-319) was 11.1 µM. For the same compound, the EC50 (MFM-223, MFM223) was 0.769 µM, the EC50 (MG-63, MG-63) was 0.478 µM and the EC50 (MIA PaCa-2, MIA PaCa-2) was 1.81 µM. The EC50 (MINO) was 0.204 µM, the EC50 (MKN-1, MKN1) was 2.03 µM and the EC50 (MKN-45, MKN-45) was 1.71 µM. It also gave an EC50 (ML-2, ML-2) of 0.687 µM, an EC50 (MM127) of 0.508 µM and an EC50 (MM138) of 1.52 µM. The EC50 (MM170) was 11.4 µM, the EC50 (MM370) was 6.22 µM and the EC50 (MM383) was 1.19 µM. The EC50 (MM386) was 2.07 µM, the EC50 (MM415) was 1.37 µM and the EC50 (MM426) was 3.04 µM. It also gave an EC50 (MM466) of 2.25 µM, an EC50 (MM473, MM473) of 2.22 µM and an EC50 (MM485) of 0.521 µM. It also gave an EC50 (MM537) of 2.63 µM, an EC50 (MM576) of 7.15 µM and an EC50 (MM603) of 0.286 µM.
